Data as given in US4268630A, “Microbiological production of ketones from C3 -C6 alkanes” (priority 1979, dated 1981).
Entries after “also recorded” stand apart in the source; their conditions may differ. Read-outs that look alike come from different tables or passages of the source.

How the values were obtained:
[1] = test system: secondary alcohol dehydrogenase (SADH); assay: Activity of purified secondary alcohol dehydrogenase (inhibition, substrate specificity, Km); type: biochemical, Pseudomonas sp. ATCC 21439; conditions: for % inhibition of SADH activity: each inhibitor at a final concentration of 1 mM, spectrofluorometric; for relative percent rate of oxidation: 2-butanol = 100%
Procedure: Secondary alcohol dehydrogenase (SADH) from an obligate methanol utilizer, Pseudomonas sp. ATCC 21439 was purified as follows. […] 0.05 M sodium phosphate buffer, pH 7.0 with 0.5 mM dithiothretol (buffer A) and were disrupted sonically (5×1 min.). The crude extract was separated by centrifugation. The crude extract was heat-treated at 50° C. in a water bath for 10 minutes. The resulting precipitate was removed by centrifugation. To the supernatant solution, 25 ml of protamine sulfate solution (2% solution in 0.1 M Tris base) was added dropwise with continuous stirring. After standing for 30 minutes, the extract was centrifuged. The supernatant solution was fractionated with solid ammonium sulfate. The material precipitating between 30 and 60% saturation was collected and was dialized overnight against buffer A. The The dialized material was applied to a DEAE-cellulose column (3 cm by 35 cm) that had been equilibrated with buffer A. The secondary alcohol dehydrogenase activity was eluted in the void volume. This DEAE-cellulose eluate was concentrated by ammonium sulfate fractionation. Material precipitating between 30 and 50% ammonium sulfate saturation was collected by centrifugation and dialyzed overnight against A. This fraction was further washed and filtered through an Amicon unit with XM 50 membrane. The concentrated fraction (6 ml) inside the Amicon unit was applied to an Affi-Gel Blue column (0.8 cm×18 cm) which had been equilibrated with buffer A for affinity chromatography. The column was washed overnight with buffer A (0.18 ml./min.) and then was eluted with buffer A containing 5 mM NAD. Each 1 ml. fraction was collected.
The purified secondary alcohol dehydrogenase enzyme (SADH) may be used directly for converting C3 -C6 secondary alcohols to the corresponding methyl ketones by the procedures described above; however, a source of NAD^+ must be added to the reaction medium. One can determine the NAD-linked secondary alcohol dehydrogenase activity with a fluorescence spectrophotometer (Perkin Elmer, Model MPF 44A) by following the formation of reduced NAD (Ex 340 nm, Em 460 nm). The assay system (3 ml.) will typically contain: sodium phosphate buffer pH 7.0, 150 μmol; NAD 1.0 μmol; a given amount of enzyme preparation; and 20 μmol secondary alcohol. The reaction is started by the addition of secondary alcohol. One unit of SADH enzyme activity represents the reduction of one nmole NAD per minute.
The effect of metal-chelating agents and thioreagents on the activity of the purified SADH enzyme were studied. […] The possibility of ethanol or n-propanol as an inhibitor was studied.

[2] = test system: secondary alcohol dehydrogenase; assay: Activity of purified yeast-derived secondary alcohol dehydrogenase; type: biochemical, Pichia sp. NRRL Y-11,328; conditions: for inhibition of secondary alcohol dehydrogenase activity (in words): primary alcohols tested at 10^-3 M
[3] = test system: cell-free particulate fraction of methane-grown methylotrophs; assay: Conversion of n-alkanes to sec. alcohols by cell-free particulate fractions: inhibitors and electron donors; type: biochemical
Excerpt: The conditions for preparing the cell suspensions or the cell-free particulate fractions from methane-grown methylotroph microorganisms is the same as described above.

[4] = test system: cell suspensions of C1-utilizers; assay: Production of 2-butanone from 2-butanol / sec-alcohol oxidation by cell suspensions of the strains tested; type: cell-based; conditions: for inhibition of production of 2-butanone from 2-butanol (in words): cell suspensions of the strains tested
Excerpt: The substrate specificity for the oxidation of C3 -C6 secondary alcohols by the strains of C1 -utilizers was studied.

[5] = test system: Methylococcus capsulatus CRL M1 NRRL B-11,219; assay: Conversion of n-alkanes to oxidation products by cell suspensions; type: cell-based; conditions: methane-grown cell suspension, pH 7.0
Procedure: (§1) ^(a) Cell-suspensions of methanegrown methylotroph microorganisms
(§2) indicated in 0.15 M phosphate buffer, pH 7.0 incubated in the alkanes as
(§3) indicated at 3° C. The oxidation products were determined by g.l.c

[6] = test system: Methylosinus trichosporium OB3b NRRL B-11,196; assay: as above; type: cell-based; conditions: methane-grown cell suspension, pH 7.0
Procedure: as §1, §2, §3

[7] = test system: cell-free secondary alcohol dehydrogenase (SADH) system; assay: Cofactor requirement of cell-free soluble extracts oxidizing 2-butanol; type: biochemical
Procedure: To prepare the cell-free secondary alcohol dehydrogenase (SADH) system, the washed cells were disrupted with a Wave Energy Ultrasonic Oscillator, Model W201 (Wave Energy System, Inc., Newtown, Pa.) and centrifuged at 20,000× g. for 30 minutes. […] The enzyme activity was measured with a fluorescence spectrophotometer (Perkin Elmer, Model MPF 44A) by following the formation of reduced NAD (EX 340 nm, Em 460 nm). The formation of reduced NAD was also followed with an absorption spectrophotometer at 340 nm. The assay system (3 ml.) contained: potassium phosphate buffer pH 7.0; 150 μmol.; NAD 1 μmol.; a given amount of enzyme preparation; and secondary alcohol 10 μmol. The reaction was started by the addition of substrate. One unit of enzyme activity represents the reduction of one μmole NAD per minute. Protein concentrations were determined by the Lowry method (J. Biol. Chem., 193: 255-275 (1951)).

c1cnc2c(c1)ccc1cccnc12 [1,10-phenanthroline, reference compound]
% inhibition of SADH activity [1]: 95% | inhibition of secondary alcohol dehydrogenase activity (in words) [2]: strongly inhibited | inhibition of conversion of n-alkanes to sec. alcohols (in words) [3]: inhibited | inhibition of production of 2-butanone from 2-butanol (in words) [4]: inhibited

OC1CCCCC1 [cyclohexanol]
substrate specificity of purified SADH (in words) [1]: lower rate | relative percent rate of oxidation [1]: 4%

CC=O [acetaldehyde]
substrate specificity of purified SADH (in words) [1]: lower rate | relative percent rate of oxidation [1]: 4%

N#C[S][Hg][S]C#N [mercuric thiocyanate, reference compound]
inhibition of secondary alcohol dehydrogenase activity (in words) [2]: inhibited

O=C(O)CI [iodoacetic acid, reference compound]
inhibition of SADH activity (in words) [1]: not inhibited

CC(O)C(C)O (stereo not drawn) [butane 2,3-diol]
substrate specificity of purified SADH (in words) [1]: lower rate | relative percent rate of oxidation [1]: 2.5%

O=S(=O)([O-])[O-].[Cu+2] [cupric sulfate, reference compound]
inhibition of secondary alcohol dehydrogenase activity (in words) [2]: inhibited

O=C(O)c1cc(SSc2ccc([N+](=O)[O-])c(C(=O)O)c2)ccc1[N+](=O)[O-] [5,5'-dithiobis(2-nitrobenzoic acid), reference compound]
% inhibition of SADH activity [1]: 100% | inhibition of SADH activity (in words) ([1]; purified SADH): inhibited

CCN1C(=O)C=CC1=O [N-ethylmalemide, N-ethylmaleimide, reference compound]
% inhibition of SADH activity [1]: 6% | inhibition of SADH activity (in words) ([1]; purified SADH): not inhibited

CC [Ethane]
Conversion Rate to product Ethanol [5]: 2.0 μmoles/hr./mg./protein | Conversion Rate to product Ethanol [6]: 1.3 μmoles/hr./mg./protein

CCCO [propanol]
substrate specificity of purified SADH (in words) [1]: lower rate | relative percent rate of oxidation [1]: 2%

[Mg+2] [Mg^++, reference compound]
% inhibition of SADH activity [1]: 0%

CCCO [n-propanol]
inhibition of SADH activity (in words) [1]: did not inhibit | substrate specificity of purified yeast secondary alcohol dehydrogenase (in words) [2]: not oxidized

CC(O)CO (stereo not drawn) [1,2-propandiol]
substrate specificity of purified yeast secondary alcohol dehydrogenase (in words) ([2]; spectrophotometric): not oxidized

[Fe+3] [ferric, reference compound]
% inhibition of SADH activity [1]: 35%

C=CC [propylene]
inhibition of conversion of n-alkanes to sec. alcohols (in words) [3]: inhibited | inhibition of conversion of n-alkanes to sec. alcohols (in words) ([3]; listed as Propylene): inhibit

NNC(N)=S [thiosemicarbazide]
inhibition of conversion of n-alkanes to sec. alcohols (in words) [3]: inhibited

[Fe+2] [ferrous, reference compound]
% inhibition of SADH activity [1]: 50%

CCO [ethanol]
inhibition of SADH activity (in words) [1]: did not inhibit | substrate specificity of purified yeast secondary alcohol dehydrogenase (in words) [2]: not oxidized

O=C(O)c1cc[c]([Hg+])cc1.[OH-] [p-hydroxymercuribenzoate, reference compound]
% inhibition of SADH activity [1]: 100% | inhibition of secondary alcohol dehydrogenase activity (in words) [2]: strongly inhibited

CO [methanol]
substrate specificity of purified yeast secondary alcohol dehydrogenase (in words) ([2]; spectrophotometric): not oxidized

C=O [formaldehyde]
substrate specificity of purified SADH (in words) [1]: not oxidized

CCC(O)CO (stereo not drawn) [butane 1,2-diol]
substrate specificity of purified SADH (in words) [1]: not oxidized | substrate specificity of purified yeast secondary alcohol dehydrogenase (in words) ([2]; spectrophotometric): not oxidized

[N-]=[N+]=[N-] [Sodium azide, reference compound]
% inhibition of SADH activity [1]: 10%

CCCCO [butan-1-ol]
substrate specificity of purified yeast secondary alcohol dehydrogenase (in words) [2]: not oxidized

Oc1cccc2cccnc12 [8-hydroxyquinoline]
inhibition of conversion of n-alkanes to sec. alcohols (in words) [3]: inhibited

NC(=O)C1=CN([C@@H]2O[C@H](COP(=O)(O)OP(=O)(O)OC[C@H]3O[C@@H](n4cnc5c(N)ncnc54)[C@H](OP(=O)(O)O)[C@@H]3O)[C@@H](O)[C@H]2O)C=CC1 [NADPH, reduced nicotinamide adenine dinucleotide phosphate]
use as electron donor for hydroxylation of n-alkanes [3]: could also be utilized as an electron donor

CCCCCCC(C)O (stereo not drawn) [2-octanol]
substrate specificity of purified yeast secondary alcohol dehydrogenase (in words) ([2]; spectrophotometric): not oxidized

CCC(C)=O [2-Butanone, 2-butanone]
inhibition of SADH activity (in words) ([1]; purified SADH): inhibited | product inhibition of 2-butanone production ([4]; exogenously supplied 2-butanone (8 μmoles) with viable cell suspensions): No product (2-butanone) inhibition; also recorded: did not inhibit

[Ni+2] [nickel, reference compound]
% inhibition of SADH activity [1]: 20%

NC(=O)C1=CN([C@@H]2O[C@H](COP(=O)(O)OP(=O)(O)OC[C@H]3O[C@@H](n4cnc5c(N)ncnc54)[C@H](O)[C@@H]3O)[C@@H](O)[C@H]2O)C=CC1 [NADH, reduced nicotinamide adenine dinucleotide]
use as electron donor for hydroxylation of n-alkanes [3]: requires

O=C(O)CCC(=O)O [succinic acid]
substrate specificity of purified SADH (in words) [1]: not oxidized

[Cu+2] [cupric, reference compound]
% inhibition of SADH activity [1]: 25%

CC(C)CO [isobutanol]
substrate specificity of purified SADH (in words) [1]: not oxidized

CCCCCO [pentan-1-ol]
substrate specificity of purified yeast secondary alcohol dehydrogenase (in words) ([2]; spectrophotometric): not oxidized

[Mn+2] [Mn^++, reference compound]
% inhibition of SADH activity [1]: 0%

O=Cc1ccccc1 [benzaldehyde]
substrate specificity of purified SADH (in words) [1]: not oxidized

[Zn+2] [Zn^++, reference compound]
stimulation of SADH activity by exogenous zinc [1]: did not stimulate | % inhibition of SADH activity [1]: 0%

c1c[nH]cn1 [imidiazole, reference compound]
inhibition of secondary alcohol dehydrogenase activity (in words) [2]: strongly inhibited

O=[N+]([O-])[O-].[Ag+] [silver nitrate, reference compound]
inhibition of secondary alcohol dehydrogenase activity (in words) [2]: inhibited

NC(=O)C1=CN([C@@H]2O[C@H](COP(=O)(O)OP(=O)(O)OC[C@H]3O[C@@H](n4cnc5c(N)ncnc54)[C@H](OP(=O)(O)O)[C@@H]3O)[C@@H](O)[C@H]2O)C=CC1 [NAD(P)H]
effectiveness as cofactor for oxidation of 2-butanol [7]: not effective

[Co+2] [Co^++, reference compound]
% inhibition of SADH activity [1]: 0%

cytochrome c [reference compound]
ability to act as electron acceptor/carrier ([2]; purified enzyme): could not act as electron carrier

CC(O)CCO (stereo not drawn) [butane 1,3-diol]
substrate specificity of purified SADH (in words) [1]: lower rate | relative percent rate of oxidation [1]: 2% | substrate specificity of purified yeast secondary alcohol dehydrogenase (in words) ([2]; spectrophotometric): not oxidized

C [Methane]
Conversion Rate to product Methanol [5]: 2.5 μmoles/hr./mg./protein | Conversion Rate to product Methanol ([6]; […] phosphate buffer): 1.5 μmoles/hr./mg./protein

c1ccc(-c2ccccn2)nc1 [α,α-bipyridyl, reference compound]
% inhibition of SADH activity [1]: 70% | inhibition of conversion of n-alkanes to sec. alcohols (in words) [3]: inhibited | inhibition of production of 2-butanone from 2-butanol (in words) [4]: inhibited

NC(N)=S [Thiourea, reference compound]
% inhibition of SADH activity [1]: 0% | inhibition of SADH activity (in words) ([1]; purified SADH): not inhibited | inhibition of conversion of n-alkanes to sec. alcohols (in words) [3]: inhibited | inhibition of production of 2-butanone from 2-butanol (in words) [4]: not inhibited

Oc1ccccc1 [phenol]
substrate specificity of purified SADH (in words) [1]: not oxidized

CCCCCC(C)O (stereo not drawn) [2-heptanol]
substrate specificity of purified yeast secondary alcohol dehydrogenase (in words) ([2]; spectrophotometric): not oxidized | substrate specificity: rate of oxidation of secondary alcohols (in words) ([4]; cell suspensions of C1-utilizers): oxidized at a much slower rate
